Consider two molecules from US20090233926A1, “2-BENZIMIDAZOLYL-6-MORPHOLINO-4-PIPERIDIN-4-YLPYRIMIDINE DERIVATIVES AS PI3K AND MTOR INHIBITORS FOR THE TREATMENT OF PROLIFERATIVE DISORDERS” (AstraZeneca, priority 2006, published 2009).

The target of experiment [1] is T1, p110α Type Ia human PI3K (Homo sapiens, UniProt P42336).
T1 construct: full length DNA of each of the p110α, p110β and p110δ Type Ia human PI3K p110 isoforms; 6-His; made in house; Grp1 PH domain in E. coli
The experiment can be described thus: In vitro PI3K enzyme assay (AlphaScreen), Test (a). The experiment is classed as biochemical. To be noted: read-out: IC50 versus p110α Type Ia human PI3K. The text has this:
The assay used AlphaScreen technology (Gray et al., Analytical Biochemistry, 2003, 313: 234-245) to determine the ability of test compounds to inhibit phosphorylation by recombinant Type I PI3K enzymes of the lipid PI(4,5)P2.
DNA fragments encoding human PI3K catalytic and regulatory subunits were isolated from cDNA libraries using standard molecular biology and PCR cloning techniques. The selected DNA fragments were used to generate baculovirus expression vectors. In particular, full length DNA of each of the p110α, p110β and p110δ Type Ia human PI3K p110 isoforms (EMBL Accession Nos. HSU79143, S67334, Y10055 for p110α, p110β and p110δ respectively) were sub-cloned into a pDEST10 vector (Invitrogen Limited, Fountain Drive, Paisley, UK). The vector is a Gateway-adapted version of Fastbac 1 containing a 6-His epitope tag. […]
Biotinylated-DiC8-PI(3,4,5)P3 (50 nM; Cell Signals Inc., Catalogue No. 107), recombinant purified GST-Grp1 PH protein (2.5 nM) and AlphaScreen Anti-GST donor and acceptor beads (100 ng; Packard Bioscience Limited, Station Road, Pangbourne, Berkshire, UK, Catalogue No. 6760603M) were added and the assay plates were left for about 5 to 20 hours at room temperature in the dark. The resultant signals arising from laser light excitation at 680 nm were read using a Packard AlphaQuest instrument. […]

Experiment [2] has as its system phosphorylation of Serine 473 in Akt. The experiment can be described thus: In vitro phospho-Ser473 Akt assay in MDA-MB-468 cells, Test (c). It is filed as cell-based. The conditions noted are these: Homo sapiens, read-out: IC50, inhibition of phosphorylation of Serine 473 in Akt. On the procedure: This assay determines the ability of test compounds to inhibit phosphorylation of Serine 473 in Akt as assessed using Acumen Explorer technology (TTP LabTech Limited, Royston, Herts, SG8 6EE, UK), a plate reader that can be used to rapidly quantitate features of images generated by laser-scanning.
A MDA-MB-468 human breast adenocarcinoma cell line (LGC Promochem, Teddington, Middlesex, UK, Catalogue No. HTB-132) was routinely maintained at 37° C. with 5% CO2 up to a confluency of 70-90% in DMEM containing 10% FCS and 1% L-glutamine.
For the assay, the cells were detached from the culture flask using ‘Accutase’ (Innovative Cell Technologies Inc., San Diego, Calif., USA; Catalogue No. AT104) using standard tissue culture methods and resuspended in media to give 5.5×10^4 cells per ml. Aliquots (90 μl) were seeded into each of the inner 60 wells of a black ‘Costar’ 96-well plate (Corning Inc., NY, USA; Catalogue No. 3904) to give a density of ˜5000 cells per well. Aliquots (90 μl) of culture media were placed in the outer wells to prevent edge effects. [An alternative cell handling procedure involved the maintenance of the cells in a ‘SelecT’ robotic device (The Automation Partnership, Royston, Herts SG8 5WY, UK). Cells were resuspended in media to give 5×10^4 cells per ml. Aliquots (100 μl) were seeded into the wells of a black ‘Costar’ 96-well plate.] […]

Structures are written as SMILES.

T1 sequence (P42336 whole entry, the tested form may be a part, canonical isoform): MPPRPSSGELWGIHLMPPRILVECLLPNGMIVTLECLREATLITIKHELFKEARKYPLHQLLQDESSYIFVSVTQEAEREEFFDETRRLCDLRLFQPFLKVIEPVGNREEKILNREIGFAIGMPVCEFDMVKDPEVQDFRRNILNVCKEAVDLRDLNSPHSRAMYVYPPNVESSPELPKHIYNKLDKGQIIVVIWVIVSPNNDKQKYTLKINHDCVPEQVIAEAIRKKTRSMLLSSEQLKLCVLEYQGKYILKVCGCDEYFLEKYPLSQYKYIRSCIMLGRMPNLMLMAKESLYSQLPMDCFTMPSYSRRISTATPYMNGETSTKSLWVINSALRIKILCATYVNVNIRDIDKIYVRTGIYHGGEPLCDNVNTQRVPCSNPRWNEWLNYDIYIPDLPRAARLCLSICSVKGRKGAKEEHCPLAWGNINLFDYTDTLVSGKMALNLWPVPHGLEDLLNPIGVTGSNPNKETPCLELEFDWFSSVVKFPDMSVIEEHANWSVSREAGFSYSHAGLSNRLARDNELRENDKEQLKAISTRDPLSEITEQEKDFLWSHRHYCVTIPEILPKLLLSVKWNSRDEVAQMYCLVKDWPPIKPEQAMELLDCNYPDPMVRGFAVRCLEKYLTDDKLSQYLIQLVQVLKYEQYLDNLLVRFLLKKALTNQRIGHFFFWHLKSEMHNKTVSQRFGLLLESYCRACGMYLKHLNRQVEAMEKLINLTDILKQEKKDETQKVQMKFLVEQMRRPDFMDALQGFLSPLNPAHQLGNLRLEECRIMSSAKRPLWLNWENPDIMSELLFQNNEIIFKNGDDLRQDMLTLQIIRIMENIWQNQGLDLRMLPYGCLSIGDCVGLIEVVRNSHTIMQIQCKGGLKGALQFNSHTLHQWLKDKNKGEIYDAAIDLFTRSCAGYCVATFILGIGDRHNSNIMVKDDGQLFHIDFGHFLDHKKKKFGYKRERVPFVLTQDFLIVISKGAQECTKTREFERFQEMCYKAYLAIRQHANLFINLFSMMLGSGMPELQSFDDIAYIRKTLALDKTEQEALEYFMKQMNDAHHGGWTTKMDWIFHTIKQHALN
T1 sequence (P27986 whole entry partner, the tested form may be a part, canonical isoform): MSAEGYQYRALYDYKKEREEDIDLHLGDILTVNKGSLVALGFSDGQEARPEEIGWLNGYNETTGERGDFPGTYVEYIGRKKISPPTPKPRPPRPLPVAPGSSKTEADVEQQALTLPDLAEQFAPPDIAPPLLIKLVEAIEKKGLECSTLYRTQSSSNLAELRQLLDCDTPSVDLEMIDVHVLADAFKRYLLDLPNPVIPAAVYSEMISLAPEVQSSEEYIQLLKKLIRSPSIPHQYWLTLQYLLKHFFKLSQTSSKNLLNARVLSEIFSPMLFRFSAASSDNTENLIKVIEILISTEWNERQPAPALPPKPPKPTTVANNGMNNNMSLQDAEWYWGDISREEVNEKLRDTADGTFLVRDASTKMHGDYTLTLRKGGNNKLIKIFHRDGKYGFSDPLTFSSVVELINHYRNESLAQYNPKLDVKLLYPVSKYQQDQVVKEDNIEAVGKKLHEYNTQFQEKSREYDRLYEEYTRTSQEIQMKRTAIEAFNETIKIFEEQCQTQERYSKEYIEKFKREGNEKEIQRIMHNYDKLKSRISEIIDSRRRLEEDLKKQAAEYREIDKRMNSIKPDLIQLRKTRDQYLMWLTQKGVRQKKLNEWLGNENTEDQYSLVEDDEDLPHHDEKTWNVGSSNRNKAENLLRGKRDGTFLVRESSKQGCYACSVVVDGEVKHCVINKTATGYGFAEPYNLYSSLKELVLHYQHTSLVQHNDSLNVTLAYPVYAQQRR

In general, IC50 refers to the concentration that inhibits the measured activity by half. Turning to `NCC(=O)N1CC=C(c2cc(N3CCOCC3)nc(-n3c(C(F)F)nc4ccccc43)n2)CC1` [Example 1, 2-(2-difluoromethylbenzimidazol-1-yl)-4-(N-glycyl-1,2,3,6-tetrahydropyridin-4-yl)-6-morpholinopyrimidine], the IC50 in experiment [1] and in experiment [2] was roughly 0.1 µM in each case.
For the molecule `NCC(=O)N1CCC(c2cc(N3CCOCC3)nc(-n3c(C(F)F)nc4ccccc43)n2)CC1` [Example 2, 2-(2-difluoromethylbenzimidazol-1-yl)-4-(N-glycylpiperidin-4-yl)-6-morpholinopyrimidine], the values for the IC50 in experiment [1] and in experiment [2] were roughly 0.3 µM and roughly 0.1 µM, respectively.
